Measurements reported in patent US11352350B2, “IRAK degraders and uses thereof” (Kymera Therapeutics, Inc., priority 2018, dated 2022).

Assays:
[1] = target: T1, IRAK4 (Homo sapiens (Human), UniProt Q9NWZ3); test: IRAK4 MSD degradation in OCI-LY10; type: cell-based; details: OCI-LY10, 4 hrs
In short: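 OCI-LY10 cells treated with 8-point 1:3 dilutions (top 1 to 10 μM final) for 4 to 24 h at 37° C. Lysate IRAK4 measured by MSD sandwich immunoassay (2H9 capture, Y279 detection, SULFO-TAG anti-rabbit). DC50 from three-parameter logistic fit.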

[2] = target: T1, IRAK4; test: hPBMC IRAK4 degradation flow assay; type: cell-based; details: hPBMC monocyte
In short: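 Thawed human PBMCs treated with 10-point, 5-fold compound dilutions (0.1% DMSO) at 37° C. for 20 hours or 4 hours. IRAK4 measured by flow MFI in CD14+ monocytes and CD14− lymphocytes, normalized to DMSO and 10 μM 20-hour control; DC50 and max degradation from 4-parameter logistic fit.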

[3] = tested on: OCI-LY10; test: CTG Cell Viability Assay - OCI-LY10; type: cell-based, human; details: Homo sapiens, OCI-Ly10, 96 h, OCI-LY10, 4 days; read-out: CTG Cell Viability Assay - OCI-LY10: Average external-IC50
In short: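 OCI-LY10 cells exposed to 9-dose, 1:3 dilutions from 10 μM top (0.2% DMSO) for 4 days at 37° C, 5% CO2. Viability by CellTiter-Glo luminescence; IC50 from three-parameter logistic fit.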

[4] = tested on: IL-6; test: IL-6 secretion in hPBMC using R848 stimulation; type: cell-based, human; details: Homo sapiens, 20 h, hPBMC, R848 as stim, t = 20 h
[5] = read-out: IRAK4 MSD degradation in OCI-LY10 at 4 hrs: DC50
[6] = 20 hrs, read-out: IRAK4 degradation in hPBMC monocyte: DC50

T1 sequence (Q9NWZ3 whole entry): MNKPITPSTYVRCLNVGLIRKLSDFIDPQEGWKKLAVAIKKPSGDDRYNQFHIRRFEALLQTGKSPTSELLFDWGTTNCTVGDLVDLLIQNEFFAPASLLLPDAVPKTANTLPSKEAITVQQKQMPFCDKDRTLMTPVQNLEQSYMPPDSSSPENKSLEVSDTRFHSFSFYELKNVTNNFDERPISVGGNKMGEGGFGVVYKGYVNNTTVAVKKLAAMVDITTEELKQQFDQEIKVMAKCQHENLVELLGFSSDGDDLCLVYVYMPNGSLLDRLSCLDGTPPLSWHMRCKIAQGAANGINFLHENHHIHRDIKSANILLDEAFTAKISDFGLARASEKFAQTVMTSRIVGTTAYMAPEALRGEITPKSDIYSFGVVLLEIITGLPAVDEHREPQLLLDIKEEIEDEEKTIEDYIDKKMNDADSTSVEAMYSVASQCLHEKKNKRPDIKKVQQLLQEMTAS

Structure (SMILES) | DC50 [1, 5] | DC50 [2, 6] | IC50 [3] | IC50 [4] | DC50 ([1]; MSD, read-out: IRAK4 MSD degradation in OCI-LY10 at 4 hrs: Average external-Abs DC50) | DC50 ([2]; 20 hr, flow assay, read-out: IRAK4 degradation in hPBMC monocyte at 20 hr: Average external Abs DC50)
O=C1CCC(n2c3cccc(C#CCOC4CCN(C[C@H]5CC[C@H](n6cc(NC(=O)c7cnn8ccc(N9C[C@H]%10C[C@@H]9CO%10)nc78)c(C(F)F)n6)CC5)CC4)c3c3cccnc32)C(=O)N1 (some centres unmarked) [I-482] | 10 to 100 nM | 100 to 1000 nM | > 1000 nM | 1 to 10 nM |  | 
Cn1c(=O)n(C2CCC(=O)NC2=O)c2cccc(CCCOC3CCN(C[C@H]4CC[C@H](n5cc(NC(=O)c6cnn7cccnc67)c(N6CCOCC6)n5)CC4)CC3)c21 (some centres unmarked) [I-481] | 100 to 1000 nM | 100 to 1000 nM | > 1000 nM | 10 to 100 nM |  | 
Cn1c(=O)n(C2CCC(=O)NC2=O)c2cccc(CCC3CCN(c4ccc(CN5CCC(n6cc(NC(=O)c7cnn8ccc(N9C[C@H]%10C[C@@H]9CO%10)nc78)c(C(F)F)n6)CC5)cc4)CC3)c21 (some centres unmarked) [I-517] | 10 to 100 nM | < 10 nM | > 1000 nM | 1 to 10 nM |  | 
Cn1c(=O)n(C2CCC(=O)NC2=O)c2cccc(CCC(=O)N3CCC4(CC3)CN(C[C@H]3CC[C@H](n5cc(NC(=O)c6cnn7ccc(N8C[C@H]9C[C@@H]8CO9)nc67)c(C(F)F)n5)CC3)C4)c21 (some centres unmarked) [I-414] |  |  | > 1000 nM | < 1 nM | < 10 nM | < 10 nM
C[C@@H]1CN(c2ccn3ncc(C(=O)NC4=NC([C@H]5CC[C@H](CN6CCC(CCCc7cccc8c7n(C)c(=O)n8C7CCC(=O)NC7=O)CC6)CC5)N=C4C(F)F)c3n2)C[C@@H](C)O1 (some centres unmarked) [I-537] | < 10 nM | < 10 nM |  | 1 to 10 nM |  | 
Cc1ccc(-c2nn([C@H]3CC[C@H](C(=O)N4CCC5(CC4)CN(CCCc4cccc6c4n(C)c(=O)n6C4CCC(=O)NC4=O)C5)CC3)cc2NC(=O)c2cnn3cccnc23)nc1 (some centres unmarked) [I-499] | < 10 nM | < 10 nM | > 1000 nM | 1 to 10 nM |  | 
CN(C[C@H]1CC[C@H](n2cc(NC(=O)c3cnn4ccc(N5C[C@H]6C[C@@H]5CO6)nc34)c(C(F)F)n2)CC1)C1CCN(Cc2cccc3c2n(C)c(=O)n3C2CCC(=O)NC2=O)CC1 (some centres unmarked) [I-465] | < 10 nM | < 10 nM |  | < 1 nM |  | 
Cn1c(=O)n(C2CCC(=O)NC2=O)c2cccc(CCOC3CC4(CCN(C[C@H]5CC[C@H](n6cc(NC(=O)c7cnn8ccc(N9C[C@H]%10C[C@@H]9CO%10)nc78)c(C(F)F)n6)CC5)CC4)C3)c21 (some centres unmarked) [I-469] | < 10 nM | < 10 nM |  | < 1 nM |  | 
C[C@@H]1CN(c2ccn3ncc(C(=O)NC4=NC([C@H]5CC[C@H](CN6CCC(CC#Cc7cccc8c7n(C)c(=O)n8C7CCC(=O)NC7=O)CC6)CC5)N=C4C(F)F)c3c2)C[C@H](C)O1 (some centres unmarked) [I-530] | 10 to 100 nM | < 10 nM |  | < 1 nM |  | 
C[C@H]1CN(c2ccn3ncc(C(=O)NC4=NC([C@H]5CC[C@H](CN6CCC(CCCc7cccc8c7n(C)c(=O)n8C7CCC(=O)NC7=O)CC6)CC5)N=C4C(F)F)c3n2)C[C@H](C)O1 (some centres unmarked) [I-543] | 10 to 100 nM | < 10 nM |  | < 1 nM |  | 
Cn1c(=O)n(C2CCC(=O)NC2=O)c2cccc(CC3CC4(CCN(Cc5ccc(-n6cc(NC(=O)c7cnn8ccc(N9C[C@H]%10C[C@@H]9CO%10)nc78)c(C(F)F)n6)cc5)CC4)C3)c21 (some centres unmarked) [I-466] | 100 to 1000 nM | < 10 nM |  | 1 to 10 nM |  | 
C[C@@H]1CN(c2ccn3ncc(C(=O)NC4=NC([C@H]5CC[C@H](CN6CCC(CC#Cc7cccc8c7n(C)c(=O)n8C7CCC(=O)NC7=O)CC6)CC5)N=C4C(F)F)c3c2)C[C@@H](C)O1 (some centres unmarked) [I-528] | 10 to 100 nM | < 10 nM |  | 1 to 10 nM |  | 
Cn1c(=O)n(C2CCC(=O)NC2=O)c2cccc(CCCCN3CCN(C(=O)[C@H]4CC[C@H](n5cc(NC(=O)c6cnn7ccc(N8C[C@H]9C[C@@H]8CO9)nc67)c(C(F)F)n5)CC4)CC3)c21 (some centres unmarked) [I-472] | < 10 nM | < 10 nM |  | < 1 nM |  | 
Cn1c(=O)n(C2CCC(=O)NC2=O)c2cccc(CN3CCN(CC[C@H]4CC[C@H](n5cc(NC(=O)c6cnn7ccc(N8C[C@H]9C[C@@H]8CO9)nc67)c(C(F)F)n5)CC4)CC3)c21 (some centres unmarked) [I-510] |  | < 10 nM | > 1000 nM | 1 to 10 nM |  | 
Cn1c(=O)n(C2CCC(=O)NC2=O)c2cccc(CCCCN3CCN(C[C@H]4CC[C@H](n5cc(NC(=O)c6cnn7ccc(N8C[C@H]9C[C@@H]8CO9)nc67)c(C(F)F)n5)CC4)CC3)c21 (some centres unmarked) [I-471] | < 10 nM | < 10 nM |  | < 1 nM |  | 
